This is an account of results in PubChem BioAssay AID1645862 (Buhrlage Lab, Dana-Farber Cancer Institute and Novartis …, 2021).

Calls of active or inactive are those of the source. How the calls were made is not given here. A value given as a limit tells only on which side of the number the result lay.

Sequence of Ubiquitin carboxyl-terminal hydrolase 8 (Homo sapiens) (P40818 whole entry, looked up): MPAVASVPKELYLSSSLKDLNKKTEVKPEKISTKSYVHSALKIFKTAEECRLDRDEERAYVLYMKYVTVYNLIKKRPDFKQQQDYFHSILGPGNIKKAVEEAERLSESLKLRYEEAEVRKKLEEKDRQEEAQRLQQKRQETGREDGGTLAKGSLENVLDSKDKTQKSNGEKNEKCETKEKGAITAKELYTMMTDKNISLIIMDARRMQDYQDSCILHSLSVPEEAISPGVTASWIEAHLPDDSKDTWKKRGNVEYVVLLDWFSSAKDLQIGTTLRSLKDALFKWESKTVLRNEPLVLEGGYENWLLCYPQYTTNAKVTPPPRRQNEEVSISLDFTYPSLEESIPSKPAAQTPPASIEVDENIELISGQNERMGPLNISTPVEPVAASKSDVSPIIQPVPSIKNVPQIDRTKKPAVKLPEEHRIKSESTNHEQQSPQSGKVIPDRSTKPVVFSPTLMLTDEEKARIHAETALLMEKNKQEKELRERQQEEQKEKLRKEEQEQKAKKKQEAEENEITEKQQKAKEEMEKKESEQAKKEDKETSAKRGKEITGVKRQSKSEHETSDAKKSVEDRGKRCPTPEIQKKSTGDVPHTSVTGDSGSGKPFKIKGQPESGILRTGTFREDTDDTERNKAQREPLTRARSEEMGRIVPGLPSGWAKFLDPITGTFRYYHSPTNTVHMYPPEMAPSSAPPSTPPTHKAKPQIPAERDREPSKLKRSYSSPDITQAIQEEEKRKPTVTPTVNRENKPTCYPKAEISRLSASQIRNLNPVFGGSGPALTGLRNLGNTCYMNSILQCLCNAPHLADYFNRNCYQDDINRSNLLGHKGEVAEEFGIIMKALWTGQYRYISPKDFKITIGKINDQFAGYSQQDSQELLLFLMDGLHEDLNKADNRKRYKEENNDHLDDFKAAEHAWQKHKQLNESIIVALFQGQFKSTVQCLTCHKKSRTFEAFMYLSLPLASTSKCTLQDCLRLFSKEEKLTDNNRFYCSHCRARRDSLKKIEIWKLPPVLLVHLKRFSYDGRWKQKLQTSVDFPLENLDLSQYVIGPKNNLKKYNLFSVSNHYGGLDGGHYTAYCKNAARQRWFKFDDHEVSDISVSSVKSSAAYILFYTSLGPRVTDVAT

This assay has as its target Ubiquitin carboxyl-terminal hydrolase 8 (Homo sapiens) (UniProt P40818). As to the kind of experiment: Ubiquitin-specific protease 8 inhibitors, concentration-effect, biochemical, validation of initial actives (AID 1645862).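 Further: potency reflects inhibition of USP8 cleavage of a ubiquitin rhodamine substrate.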 Particulars: recombinant USP8 deubiquitinase activity assay.
On to `COc1cc(OC)c(NC(=O)Cn2c(=O)n(Cc3ccccc3Cl)c(=O)c3cc(OC)c(OC)cc32)cc1Cl`, for which the IC50 (in general, the concentration at which inhibition is half-maximal) was > 40 µM (inactive).

Consider `CCc1ccc(-n2cc(OC(C)=O)c3c2nc(C)n2c4ccccc4nc32)cc1`, for which the IC50 was > 40 µM (inactive).

With `COc1ccc(Cl)cc1NC(=O)c1cc(-c2ccccn2)n[nH]1`, the IC50 was 10.5 µM.

Regarding `CCCCOc1ccc(-c2cc3n(c(=N)c2C#N)CCc2cc4c(cc2-3)OCCCO4)cc1OC`, the IC50 is > 40 µM (inactive).

With `COc1cccc2c1NC(=O)C21CCN(C(=O)Nc2cccc3ccccc23)CC1`, the IC50 is > 40 µM (inactive).

Consider `CCc1noc(-c2ccn3c(CC(=O)Nc4ccccc4C)nnc3c2)n1`, for which the IC50 was 16.5 µM.

As for `N#Cc1cccc(NC(=O)Nc2cccn(Cc3ccc(F)cc3)c2=O)c1`, the IC50 is > 40 µM (inactive).

In the case of `O=C(Nc1cc(S(=O)(=O)Nc2ccc(Cl)cc2)ccc1O)c1cc2c(s1)CCC2`, the IC50 was 10.7 µM.

As to `CCN(c1ccc(NC(=O)COC(=O)c2cccnc2Nc2cccc(C(F)(F)F)c2)cc1)C(C)C`, the IC50 was > 40 µM (inactive).

Regarding `O=C(Nc1ccc(-n2cccc2)cc1)c1cccc([N+](=O)[O-])c1`, the IC50 is > 40 µM (inactive).

Regarding `Cc1ccc(NC(=O)Cn2cc(C(=O)c3ccccc3)c(=O)c3cc(C)ccc32)cc1`, the IC50 is 39.6 µM.

Turning to `COc1ccccc1CNC(=O)C1c2ccccc2C(=O)N1Cc1ccccc1C` (stereo not given), the IC50 is > 40 µM (inactive).

Turning to `COc1cc(O)cc2c1C(=O)OC(C)CCCCCCC2` (stereo not given), the IC50 was > 40 µM (inactive).

As for `Cc1ccc2nc(CNc3ccc(F)cc3C)cc(=O)n2c1`, the IC50 was > 40 µM (inactive).

`CCCn1cc(C(=O)N2CCC3(CC2)CC2(CO3)Nc3ccccc3-n3cccc32)c(C)n1` (stereo not given): the IC50 was 37.2 µM.

With `COc1ccc(S(=O)(=O)NCc2ccc3c(c2)cc(C)n3C)cc1`, the IC50 is > 40 µM (inactive).

As for `CC(=O)c1cc(-c2ccc(F)cc2)n(CC(=O)Nc2cccc(C)c2C)c1C`, the IC50 is > 40 µM (inactive).

Consider `Cn1cc(NC(=O)Nc2cccc(C(F)(F)F)c2)c2ccccc2c1=O`, for which the half-maximal inhibitory concentration (IC50) is 9.33 µM.

For `O=C(Cc1ccc(-n2c(=O)c3ccccc3n(Cc3cccc([N+](=O)[O-])c3)c2=O)cc1)NC1CCCC1`, the IC50 was > 40 µM (inactive).

Take `COc1ccc(-c2cc3n(c(=N)c2C#N)CCc2cc4c(cc2-3)OCO4)cc1O`: the IC50 is > 40 µM (inactive).

Turning to `O=C(CSc1ccc(-c2ccccc2)nn1)Nc1ccc(F)c([N+](=O)[O-])c1`, the IC50 is > 40 µM (inactive).

For `CN(C)S(=O)(=O)c1ccc(NC(=O)CN2CCCc3ccccc32)cc1`, the IC50 was > 40 µM (inactive).

Consider `COc1ccccc1N(CC(=O)N1c2ccccc2CC1C)S(=O)(=O)c1ccc(F)cc1` (stereo not given), for which the IC50 is > 40 µM (inactive).

For the molecule `O=C(Nc1ccccc1)Nc1ccc(F)c(-c2nnc(-c3ccccc3)o2)c1`, the IC50 was > 40 µM (inactive).

Take `O=C(c1cnc2ccccc2n1)N1CCC(S(=O)(=O)c2ccc(-c3ccco3)cc2)CC1`: the IC50 was > 40 µM (inactive).

As to `Cc1cc(C)c(NC(=O)Cc2sc(Nc3ccc(C)c(C)c3)nc2O)c(C)c1`, the IC50 is > 40 µM (inactive).

As to `C=C1C=C(CCC(=O)O)C(=O)OC1/C=C/C=C/C` (stereo not given), the IC50 was 2.09 µM.

`Cc1cc(C)c2nc3c(cc2c1)CN(Cc1ccco1)C(=O)O3`: the IC50 is > 40 µM (inactive).

Turning to `O=C(c1ccc2cc[nH]c2c1)N1CCC(Nc2cccnc2)C1` (stereo not given), the IC50 was > 40 µM (inactive).

As for `Cc1ccccc1NC(=O)Nc1ccccc1OCc1cc(=O)n2cccc(C)c2n1`, the IC50 was > 40 µM (inactive).

With `CN(CC(=O)Nc1ccc(Cl)cc1)c1cnn(-c2nc3ccccc3[nH]2)c(=O)c1Cl`, the IC50 was > 40 µM (inactive).

With `COc1ccccc1CN1CCC(c2cc(=O)[nH]c(-c3cccnc3)n2)CC1`, the IC50 was > 40 µM (inactive).

Take `O=C(NCc1ccco1)c1ccc(Cn2c(=O)c3sccc3n(Cc3cc(=O)n4ccccc4n3)c2=O)cc1`: the IC50 is > 40 µM (inactive).

`O=C(Nc1nc2c(ccc3ccccc32)s1)c1cccc(Br)c1`: the IC50 was > 40 µM (inactive).

Take `Cc1ccc(-c2nc(NC(=O)COc3ccc(Cl)cc3)no2)cc1`: the IC50 was 9.1 µM.

In the case of `COc1cc(C)cc2c1C(=O)c1c(cc(O)c(Cl)c1O)C2=O`, the IC50 was 3.33 µM.

Take `O=c1c(O)c(-c2ccc(O)c(O)c2)oc2cc(O)cc(O)c12`: the IC50 was 0.802 µM.

Turning to `Nc1ccc(C(=O)OCC(=O)NC2CCCc3ccccc32)cc1[N+](=O)[O-]` (stereo not given), the IC50 was > 40 µM (inactive).

On to `Cc1ccc(NC(=O)Cc2nnc3cc(-c4nc(C)no4)ccn23)cc1`, for which the IC50 is 21.3 µM.

On to `COc1ccc(/C=C/C(=O)Nc2ccc(Cl)c(-c3nc4ncccc4o3)c2)cc1`, for which the IC50 is > 40 µM (inactive).

Regarding `Cc1cc(C)c(NC(=O)CSc2nc3nccnc3c(=O)n2Cc2ccccc2Cl)c(C)c1`, the IC50 is > 40 µM (inactive).

As to `COc1ccc(CSc2nc3ccncc3n2CC(=O)Nc2ccc(C)cc2C)cc1`, the IC50 was > 40 µM (inactive).

Take `CCOc1ccc2c(c1)c(=O)c(C(=O)c1ccc(F)cc1)cn2CC(=O)Nc1ccccc1`: the IC50 was > 40 µM (inactive).

For the molecule `NS(=O)(=O)c1ccc(CNS(=O)(=O)/C=C/c2ccccc2)cc1`, the IC50 was > 40 µM (inactive).

For `O=C(Nc1ccc(NC(=O)c2ccccc2O)cc1)Nc1ccc(OCc2ccccc2)cc1`, the IC50 was > 40 µM (inactive).

Regarding `COc1ccc(OC)c(NC(=O)c2cc(Cl)ccc2OC)c1`, the IC50 was > 40 µM (inactive).

Regarding `O=C(Nc1ccccc1C(=O)NC1CCSC1)c1ccc([N+](=O)[O-])cc1` (stereo not given), the IC50 was > 40 µM (inactive).

For `Nc1ncc(-c2ccc(F)cc2)c(C2CCCN(C(=O)c3ccn[nH]3)C2)n1` (stereo not given), the IC50 was > 40 µM (inactive).

On to `O=C(Cn1c(=O)n(-c2ccc(Cl)cc2)c(=O)c2c3c(sc21)CCCC3)NCC1CCCO1` (stereo not given), for which the IC50 was > 40 µM (inactive).

`CC(=O)[C@H]1c2c(c(O)c3c(O)cccc3c2-c2c3c(c(O)c4c(O)cccc24)C(=O)C[C@](C)(O)[C@H]3C(C)=O)C(=O)C[C@]1(C)O`: the IC50 was 24.5 µM.

Turning to `COc1ccc(-c2noc(CC(=O)Nc3cccc(OC)c3)n2)cc1`, the IC50 was > 40 µM (inactive).

For the molecule `COc1ccc(/C=C/C(=O)Nc2nc3n(n2)C(c2ccccc2)CC(=O)N3)cc1` (stereo not given), the IC50 was > 40 µM (inactive).

Consider `O=C(Nc1ccc(F)cc1F)c1cc(-c2ccccn2)n[nH]1`, for which the IC50 is > 40 µM (inactive).

Regarding `O=C(c1ccco1)N1CCC2(CC1)CC1(CO2)Nc2ccccc2-n2cccc21` (stereo not given), the IC50 is 22.6 µM.

Regarding `CCOc1ccc2c(c1)c(=O)c(C(=O)c1ccccc1)cn2CC(=O)Nc1ccccc1`, the IC50 was > 40 µM (inactive).

On to `COc1cc(-c2ccccc2)c(O)c(O)c1-c1ccccc1`, for which the half-inhibitory concentration (IC50) is 16 µM.

`O=C(COC(=O)c1cccc([N+](=O)[O-])c1)Nc1cccc(Oc2ccccc2)c1`: the IC50 was > 40 µM (inactive).

As for `COc1ccc(NC(=O)Cn2c(=O)n(Cc3ccco3)c(=O)c3ccc(C(=O)NC4CCCC4)cc32)cc1`, the IC50 was > 40 µM (inactive).

Consider `COc1cccc2cc(C(=O)Nc3nc(-c4ccncc4)cs3)oc12`, for which the IC50 was 19.9 µM.

Turning to `COc1ccccc1C(=O)Nc1ccc(-c2nc3ccccc3o2)c(O)c1`, the IC50 is > 40 µM (inactive).
